What all share (assay): DTP human tumour cell line panel, 48 h
Assay [1] concerns A549 NSCLC.
The subject of assay [2] is RXF 393 renal.
Assay [3] has as its system OVCAR-5 ovarian.
Assay [4] has as its system EKVX NSCLC.
For assay [5], the system named is HOP-92 NSCLC.
For assay [6], the system named is 786-0 renal.
The subject of assay [7] is LOX IMVI melanoma.
The subject of assay [8] is SF-295 CNS.
Assay [9] concerns BT-549 breast.
In assay [10] the test system is HCC-2998 colon.

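Test compounds were applied to cells in 96-well plates for 48 hours at 5 doses. GI50 = concentration required for 50% inhibition of growth. Definition used: TGI = concentration required for complete inhibition of growth.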

This passage reports TGI and GI50 results from PubChem BioAssay (NCI).

As to `O=C(O)C(=Cc1ccnc2ccccc12)C(=O)O`, the total growth inhibition concentration (TGI) in assay [1], in [2], in assay [3], in assay [4], in [5] and in [6] was > 100 µM throughout. The total growth inhibition concentration (TGI) in assay [7], in [8] and in assay [9] was > 100 µM each time.

For the molecule `CCOP(=O)(OCC)C(NC(c1ccccc1)c1ccccc1)c1ccccc1` (stereo not given), the GI50 (in general, the concentration that inhibits growth by half) was 15 µM in assay [1]; 13.4 µM in assay [4]; 15.6 µM in [5]; 14.6 µM in assay [6]; 14 µM in assay [7]; 2.05 µM in assay [8]. Moreover, the GI50 in assay [9] was 15.4 µM; in [10] it was 14.8 µM. Besides, the TGI – broadly, the concentration at which net growth stops – turned out to be 30 µM in assay [1]; 28.5 µM in assay [4]; 31.9 µM in [5]; 29.2 µM in [6]; 28.5 µM in [7]; 14.8 µM in [8]. Moreover, the figures for the TGI in assay [9] and in [10] were 34.6 µM and 29.5 µM, respectively.

Regarding `Nc1ccccc1C#C/C=C\C#Cc1ccccc1C(F)(F)F`, the GI50 in assay [1] was 0.722 µM; in assay [2], 1.1 µM; in assay [3] it was 1.15 µM; in [4] it was 0.895 µM; in assay [5], 21.5 µM; in assay [6], 0.545 µM. The results for the GI50 in [7], in [8] and in assay [9] were 0.441 µM, 0.958 µM and 0.699 µM, respectively. Besides, the TGI in assay [1] amounted to 15.5 µM; in assay [2], 9.98 µM; in [3] it was 10.8 µM; in assay [4], 15.2 µM; in assay [5], 48 µM; in assay [6], 16.7 µM. Also, the TGI in assay [7] worked out at 11.5 µM; in assay [8] it was 3.62 µM; in [9], 17.3 µM.

In the case of `CC[C@]1(O)CC2CN(CCc3c([nH]c4ccccc34)[C@@](C(=O)OC)(c3cc4c(cc3OC)N(C)[C@H]3[C@@](O)(C(=O)OC)[C@H](OC(C)=O)[C@]5(CC)C=CCN6CC[C@]43[C@@H]65)C2)C1` (stereo not given in full), the 50% growth inhibitory concentration (GI50) in assay [1] was < 0.005 µM; in assay [3], 0.01 µM; in [4] it was 0.00956 µM; in assay [5], < 0.005 µM; in assay [6] it was < 0.005 µM; in assay [7], < 0.005 µM. The values for the 50% growth inhibitory concentration (GI50) in [8], in assay [9] and in [10] were < 0.005 µM, 0.00538 µM and < 0.005 µM, respectively. Further, the TGI was > 50 µM in assay [1]; > 47.2 µM in [3]; > 50 µM in assay [4]; 0.119 µM in assay [5]; 3.13 µM in assay [6]; 8.01 µM in assay [7]. Besides, the results for the TGI in [8], in [9] and in assay [10] were 6.03 µM, 0.595 µM and 0.0195 µM, respectively.

Regarding `Cc1c(C#N)cccc1-c1cc(-c2cn(Cc3cccc(C(C)(C)O)n3)nn2)nc(N)n1`, the GI50 was 26.9 µM in [1]; 22.9 µM in assay [2]; > 100 µM in [3]; 27.8 µM in [4]; 32 µM in assay [6]; 28.2 µM in [7]. The GI50 in assay [8] was 25.2 µM; in assay [9], 14.9 µM; in [10] it was 90.3 µM. In addition, the TGI in [1], in assay [2], in assay [3], in assay [4], in assay [6] and in assay [7] was > 100 µM each time. Besides, the total growth inhibition concentration (TGI) in assay [8] is > 100 µM; in [9] it was 69.1 µM; in assay [10], > 100 µM.

Turning to `Cc1ccccc1-c1c(N)nc(NC#N)nc1C(=O)Nc1ccccc1`, the TGI in [1], in assay [2], in assay [3], in assay [4], in assay [5] and in assay [6] was > 100 µM throughout. Further, the TGI in assay [7], in [8] and in [10] was > 100 µM each time.

On to `Nc1ccc2c(SCCSc3c4ccccc4nc4cc(N)ccc34)c3ccccc3nc2c1`, for which the total growth inhibition concentration (TGI) in assay [1], in assay [3], in assay [4], in assay [5], in [6] and in assay [7] was > 100 µM throughout. Besides, the concentration for total growth inhibition (TGI) in [8] and in assay [9] was > 100 µM each time.

In the case of `Cc1cccc(C(C)(C)C)c1NC(=O)C(=O)C(C(=O)/C=C\c1ccccc1)C1OC(=O)c2ccccc21` (stereo not given), the total growth inhibition concentration (TGI) in assay [1], in [2], in [3], in assay [4], in assay [5] and in [6] was > 100 µM throughout. In addition, the TGI in assay [7], in assay [8] and in assay [10] was > 100 µM in each case.

Regarding `CC(O)/C=C/C(CCC(C)CO)C(C)C` (stereo not given), the concentration for total growth inhibition (TGI) in [1], in assay [2], in assay [3], in assay [4], in [5] and in assay [6] was > 100 µM each time. Moreover, the TGI in [7], in [8] and in [10] was > 100 µM each time.

For `C[C@@H]1C=C(CCCCCCCCCCC[C@H](O)[C@@H]2CCC(=O)O2)C(=O)O1`, the GI50 in assay [1] is 38.1 µM; in [2] it was 47.2 µM; in assay [4] it was 33.2 µM; in [6], 23.6 µM; in [8], 19.8 µM; in assay [9], 47.4 µM. Moreover, the GI50 in [10] was 2.26 µM. In addition, the concentration for total growth inhibition (TGI) in assay [1] is > 100 µM; in assay [2], > 100 µM; in assay [4], > 100 µM; in [6] it was > 100 µM; in [8] it was 48.6 µM; in [9], > 100 µM. In [10], the TGI amounted to 16.7 µM.

Turning to `CCCCCCCCCCCCCCCCCC(=O)OCC(CN(C)CCN(C)C)OC(=O)CCCCCCCCCCCCCCCCC` (stereo not given), the TGI in assay [1], in assay [2], in [3], in assay [4], in [5] and in [6] was > 100 µM each time. For the same molecule, the TGI in assay [7], in assay [8] and in assay [10] was > 100 µM throughout.

Take `CSc1nc(NC2OCC(OC(C)=O)C(OC(C)=O)C2OC(C)=O)c2c(OC(C)=O)c(C)c(=O)oc2n1` (stereo not given): the TGI in assay [1], in [2], in assay [3], in [4], in [5] and in assay [6] was > 100 µM each time. Further, the total growth inhibition concentration (TGI) in assay [7], in assay [8] and in assay [10] was > 100 µM throughout.

As to `COc1cc2oc(=O)ccc2cc1C1OC(=O)C2OC21C` (stereo not given), the concentration for total growth inhibition (TGI) in [1], in [2], in [3], in [4], in assay [5] and in assay [6] was > 100 µM in each case. For the same molecule, the TGI in [7], in [8] and in [10] was > 100 µM in each case.

Consider `COc1ccc(/C=N/N=C(\N)NO)cc1OC`, for which the concentration for total growth inhibition (TGI) in assay [1] is 95.8 µM; in [2] it was 67.4 µM; in assay [3], > 100 µM; in [4] it was > 100 µM; in [5], > 100 µM; in assay [6] it was > 100 µM. In addition, the concentration for total growth inhibition (TGI) in [7], in assay [8] and in assay [10] was > 100 µM throughout.

Turning to `O=C1C(Cl)=C(Cl)C(=O)N1C1C2CC3CC(C2)CC1C3` (stereo not given), the total growth inhibition concentration (TGI) in assay [1], in [2], in assay [3], in assay [4], in [5] and in assay [6] was > 100 µM in each case. For the same molecule, the TGI in assay [7], in assay [8] and in assay [10] was > 100 µM each time.

As for `N[C@@H](Cc1c[nH]c2ccccc12)C(=O)NC1CCN(C(=O)c2c[nH]c3ccccc23)CC1`, the GI50 in assay [1] is > 100 µM; in [3], > 100 µM; in assay [4] it was > 100 µM; in assay [5], 71 µM; in assay [6], 78.1 µM; in assay [7], 96.1 µM. The GI50 in assay [8], in [9] and in assay [10] was > 100 µM throughout. Also, the TGI in [1], in assay [3], in [4], in assay [5], in assay [6] and in assay [7] was > 100 µM throughout. In addition, the total growth inhibition concentration (TGI) in [8], in assay [9] and in [10] was > 100 µM in each case.

In the case of `COc1cc(Nc2nc3cc(N)cc(N)c3nc2-c2ccccc2)cc(OC)c1`, the GI50 in assay [1] was 20.1 µM; in [2], 3.15 µM; in assay [3], 26.6 µM; in [4] it was 13.3 µM; in assay [6], 17.7 µM; in assay [7], 15.2 µM. The GI50 was 12.5 µM in [8], 4.69 µM in assay [9] and 24.3 µM in [10]. The TGI in [1] was > 100 µM; in assay [2], 18.8 µM; in [3] it was > 100 µM; in [4] it was 64.4 µM; in assay [6] it was 50.8 µM; in assay [7], 50.6 µM. Further, the TGI in [8] was 59.2 µM; in [9], 31.8 µM; in assay [10] it was > 100 µM.

In the case of `Cc1ccc(NC(=O)CC2C(=O)Nc3ccccc3S2=O)cc1C` (stereo not given), the TGI in [1] was > 100 µM; in assay [2] it was 41.8 µM; in [3] it was > 100 µM; in assay [4], > 100 µM; in assay [5], 74.2 µM; in [6], 68.8 µM. The TGI in [7], in assay [8] and in [10] was > 100 µM in each case.

Regarding `Clc1ccc(-n2nnc(C3=NCCN3)c2-c2ccccc2)cc1`, the total growth inhibition concentration (TGI) in assay [1], in assay [2], in assay [3], in assay [4], in [5] and in assay [6] was > 100 µM throughout. The TGI in assay [7], in assay [8] and in assay [10] was > 100 µM in each case.

In the case of `O=C(O)CNc1c2ccccc2nc2ccccc12`, the total growth inhibition concentration (TGI) in assay [1], in [2], in assay [3], in assay [4], in [5] and in [6] was > 100 µM each time. The concentration for total growth inhibition (TGI) in [7], in assay [8] and in [10] was > 100 µM in each case.

Consider `O=C(O)c1ccc2c(c1)Cc1cc([N+](=O)[O-])ccc1-2`, for which the total growth inhibition concentration (TGI) in assay [1], in assay [3], in assay [4], in [5], in assay [6] and in assay [7] was > 100 µM in each case. The total growth inhibition concentration (TGI) in assay [8], in assay [9] and in assay [10] was > 100 µM in each case.

Turning to `CCCCCCCCCC(=O)CC(=O)c1ccc(O)cc1O`, the concentration for total growth inhibition (TGI) in [1] was > 100 µM; in assay [2], 72.1 µM; in assay [3], 94 µM; in assay [4], 73 µM; in assay [5], 79.4 µM; in assay [6], > 100 µM. For the same molecule, the figures for the TGI in assay [7], in assay [8] and in assay [10] were 38.7 µM, 70.1 µM and 46.3 µM, respectively.

Take `OCCCCC#Cc1ccccc1C#Cc1ccccc1`: the GI50 in assay [1] is 21.3 µM; in assay [3] it was 17.7 µM; in [4] it was 6.59 µM; in assay [5], 9.55 µM; in assay [6], 8.6 µM; in [8] it was 7.65 µM. Further, the figures for the GI50 in [9] and in assay [10] were 11.6 µM and 16.8 µM, respectively. Also, the total growth inhibition concentration (TGI) in assay [1] came to 70.4 µM; in [3], 43.6 µM; in [4], 22.4 µM; in [5] it was 22.6 µM; in assay [6], 22.5 µM; in [8], 22.6 µM. Moreover, the TGI in [9] was 25.9 µM; in assay [10], 43.6 µM.
